# Data as given in PubChem BioAssay (NCI).
#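 Five compound concentrations were applied to cells in 96-well plates for 48 hours; endpoints were derived by simple linear interpolation of the resulting dose-response curve. TGI is the concentration that stops growth completely.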
# Key:
# Test in all cases: growth of human tumour cells (NCI), 48 h
# OVCAR-3 ovarian = test system: OVCAR-3 ovarian
# KM12 colon = test system: KM12 colon
# K-562 leukemia = test system: K-562 leukemia
# U251 CNS = test system: U251 CNS
# HS 578T breast = test system: HS 578T breast
# MOLT-4 leukemia = test system: MOLT-4 leukemia
# A549 NSCLC = test system: A549 NSCLC
# TK-10 renal = test system: TK-10 renal
# SF-295 CNS = test system: SF-295 CNS
# T-47D breast = test system: T-47D breast
# EKVX NSCLC = test system: EKVX NSCLC
# SK-MEL-2 melanoma = test system: SK-MEL-2 melanoma
# MDA-MB-435 = test system: MDA-MB-435
# HOP-62 NSCLC = test system: HOP-62 NSCLC
# NCI-H522 lung = test system: NCI-H522 lung
# SN12C renal = test system: SN12C renal
# M14 melanoma = test system: M14 melanoma
# SK-MEL-5 melanoma = test system: SK-MEL-5 melanoma
# CAKI-1 renal = test system: CAKI-1 renal
# COLO 205 colon = test system: COLO 205 colon
# 786-0 renal = test system: 786-0 renal
# OVCAR-8 ovarian = test system: OVCAR-8 ovarian
# SK-OV-3 ovarian = test system: SK-OV-3 ovarian
# DU-145 prostate = test system: DU-145 prostate
# NCI-H23 lung = test system: NCI-H23 lung
# MDA-MB-231 breast = test system: MDA-MB-231 breast
# HCT-15 colon = test system: HCT-15 colon
# UO-31 renal = test system: UO-31 renal
# NCI-H226 lung = test system: NCI-H226 lung
# ACHN renal = test system: ACHN renal
# SK-MEL-28 melanoma = test system: SK-MEL-28 melanoma
# NCI/ADR-RES ovarian = test system: NCI/ADR-RES ovarian
# NCI-H460 lung = test system: NCI-H460 lung
# MCF7 breast = test system: MCF7 breast
# SNB-19 CNS = test system: SNB-19 CNS
# MALME-3M melanoma = test system: MALME-3M melanoma
# UACC-62 melanoma = test system: UACC-62 melanoma
# SF-539 CNS = test system: SF-539 CNS
# UACC-257 melanoma = test system: UACC-257 melanoma
# MDA-N = test system: MDA-N
# SW-620 colon = test system: SW-620 colon
# BT-549 breast = test system: BT-549 breast
# HT29 colon = test system: HT29 colon
# SNB-75 CNS = test system: SNB-75 CNS
# OVCAR-4 ovarian = test system: OVCAR-4 ovarian
# RXF 393 renal = test system: RXF 393 renal
# IGROV1 ovarian = test system: IGROV1 ovarian
# HCT-116 colon = test system: HCT-116 colon
# HOP-92 NSCLC = test system: HOP-92 NSCLC
# A498 renal = test system: A498 renal
# LOX IMVI melanoma = test system: LOX IMVI melanoma
# SF-268 CNS = test system: SF-268 CNS
# CCRF-CEM leukemia = test system: CCRF-CEM leukemia
# HL-60(TB) leukemia = test system: HL-60(TB) leukemia
# OVCAR-5 ovarian = test system: OVCAR-5 ovarian
# PC-3 prostate = test system: PC-3 prostate
# HCC-2998 colon = test system: HCC-2998 colon
# RPMI-8226 leukemia = test system: RPMI-8226 leukemia
compound,measurement,setting,value
O=C1/C(=N\n2c(-c3ccncc3)n[nH]c2=S)c2cc(Cl)ccc2N1CN1CCCCC1,TGI,OVCAR-3 ovarian,> 100 µM
same,TGI,KM12 colon,> 100 µM
same,TGI,K-562 leukemia,> 100 µM
same,TGI,U251 CNS,> 100 µM
same,TGI,HS 578T breast,93.2 µM
same,TGI,MOLT-4 leukemia,50.3 µM
same,TGI,A549 NSCLC,> 100 µM
same,TGI,TK-10 renal,> 100 µM
same,TGI,SF-295 CNS,> 100 µM
same,TGI,T-47D breast,> 100 µM
same,TGI,EKVX NSCLC,> 100 µM
same,TGI,SK-MEL-2 melanoma,59.2 µM
same,TGI,MDA-MB-435,> 100 µM
same,TGI,HOP-62 NSCLC,> 100 µM
same,TGI,NCI-H522 lung,33.2 µM
same,TGI,SN12C renal,> 100 µM
same,TGI,M14 melanoma,> 100 µM
same,TGI,SK-MEL-5 melanoma,> 100 µM
same,TGI,CAKI-1 renal,> 100 µM
same,TGI,COLO 205 colon,> 100 µM
same,TGI,786-0 renal,> 100 µM
same,TGI,OVCAR-8 ovarian,> 100 µM
same,TGI,SK-OV-3 ovarian,> 100 µM
same,TGI,DU-145 prostate,> 100 µM
same,TGI,NCI-H23 lung,> 100 µM
same,TGI,MDA-MB-231 breast,> 100 µM
same,TGI,HCT-15 colon,> 100 µM
same,TGI,UO-31 renal,> 100 µM
same,TGI,NCI-H226 lung,> 100 µM
same,TGI,ACHN renal,> 100 µM
same,TGI,SK-MEL-28 melanoma,> 100 µM
same,TGI,NCI/ADR-RES ovarian,> 100 µM
same,TGI,NCI-H460 lung,> 100 µM
same,TGI,MCF7 breast,> 100 µM
same,TGI,SNB-19 CNS,> 100 µM
same,TGI,MALME-3M melanoma,> 100 µM
same,TGI,UACC-62 melanoma,> 100 µM
same,TGI,SF-539 CNS,> 100 µM
same,TGI,UACC-257 melanoma,76.2 µM
same,TGI,MDA-N,> 100 µM
same,TGI,SW-620 colon,> 100 µM
same,TGI,BT-549 breast,> 100 µM
same,TGI,HT29 colon,> 100 µM
same,TGI,SNB-75 CNS,> 100 µM
same,TGI,OVCAR-4 ovarian,> 100 µM
same,TGI,RXF 393 renal,38.3 µM
same,TGI,IGROV1 ovarian,75 µM
same,TGI,HCT-116 colon,> 100 µM
same,TGI,HOP-92 NSCLC,> 100 µM
same,TGI,A498 renal,> 100 µM
same,TGI,LOX IMVI melanoma,40.2 µM
same,TGI,SF-268 CNS,> 100 µM
same,TGI,CCRF-CEM leukemia,81.1 µM
same,TGI,HL-60(TB) leukemia,47 µM
same,TGI,OVCAR-5 ovarian,> 100 µM
same,TGI,PC-3 prostate,> 100 µM
CCCCCCSC[C@H](OC(C)=O)[C@@H](OC(C)=O)[C@@H](OC(C)=O)[C@@H](COC(C)=O)OC(C)=O,TGI,OVCAR-3 ovarian,> 100 µM
same,TGI,KM12 colon,> 100 µM
same,TGI,K-562 leukemia,> 100 µM
same,TGI,HCC-2998 colon,> 100 µM
same,TGI,U251 CNS,> 100 µM
same,TGI,HS 578T breast,> 100 µM
same,TGI,MOLT-4 leukemia,90.5 µM
same,TGI,A549 NSCLC,> 100 µM
same,TGI,TK-10 renal,> 100 µM
same,TGI,SF-295 CNS,> 100 µM
same,TGI,T-47D breast,> 100 µM
same,TGI,EKVX NSCLC,> 100 µM
same,TGI,SK-MEL-2 melanoma,> 100 µM
same,TGI,MDA-MB-435,> 100 µM
same,TGI,HOP-62 NSCLC,> 100 µM
same,TGI,SN12C renal,> 100 µM
same,TGI,M14 melanoma,> 100 µM
same,TGI,SK-MEL-5 melanoma,62.1 µM
same,TGI,CAKI-1 renal,> 100 µM
same,TGI,COLO 205 colon,> 100 µM
same,TGI,786-0 renal,> 100 µM
same,TGI,OVCAR-8 ovarian,> 100 µM
same,TGI,SK-OV-3 ovarian,> 100 µM
same,TGI,DU-145 prostate,> 100 µM
same,TGI,RPMI-8226 leukemia,50.1 µM
same,TGI,NCI-H23 lung,> 100 µM
same,TGI,MDA-MB-231 breast,> 100 µM
same,TGI,HCT-15 colon,> 100 µM
same,TGI,UO-31 renal,> 100 µM
same,TGI,NCI-H226 lung,> 100 µM
same,TGI,ACHN renal,> 100 µM
same,TGI,SK-MEL-28 melanoma,> 100 µM
same,TGI,NCI/ADR-RES ovarian,> 100 µM
same,TGI,NCI-H460 lung,> 100 µM
same,TGI,MCF7 breast,> 100 µM
same,TGI,SNB-19 CNS,> 100 µM
same,TGI,MALME-3M melanoma,> 100 µM
same,TGI,UACC-62 melanoma,> 100 µM
same,TGI,SF-539 CNS,> 100 µM
same,TGI,UACC-257 melanoma,> 100 µM
same,TGI,MDA-N,> 100 µM
same,TGI,SW-620 colon,> 100 µM
same,TGI,BT-549 breast,> 100 µM
same,TGI,HT29 colon,> 100 µM
same,TGI,SNB-75 CNS,> 100 µM
same,TGI,OVCAR-4 ovarian,> 100 µM
same,TGI,RXF 393 renal,> 100 µM
same,TGI,IGROV1 ovarian,> 100 µM
same,TGI,HCT-116 colon,> 100 µM
same,TGI,HOP-92 NSCLC,> 100 µM
same,TGI,A498 renal,> 100 µM
same,TGI,LOX IMVI melanoma,> 100 µM
same,TGI,SF-268 CNS,> 100 µM
same,TGI,CCRF-CEM leukemia,> 100 µM
same,TGI,HL-60(TB) leukemia,> 100 µM
same,TGI,OVCAR-5 ovarian,> 100 µM
same,TGI,PC-3 prostate,99.6 µM
CC=C(CBr)CCC(Br)C(C)(C)Cl (mixture of isomers),TGI,OVCAR-3 ovarian,> 10 µM
same,TGI,KM12 colon,> 10 µM
same,TGI,K-562 leukemia,> 10 µM
same,TGI,HCC-2998 colon,> 10 µM
same,TGI,U251 CNS,> 10 µM
same,TGI,HS 578T breast,> 10 µM
same,TGI,MOLT-4 leukemia,> 10 µM
same,TGI,A549 NSCLC,> 10 µM
same,TGI,TK-10 renal,> 10 µM
same,TGI,SF-295 CNS,> 10 µM
same,TGI,T-47D breast,> 10 µM
same,TGI,EKVX NSCLC,> 10 µM
same,TGI,SK-MEL-2 melanoma,> 10 µM
same,TGI,MDA-MB-435,> 10 µM
same,TGI,HOP-62 NSCLC,> 10 µM
same,TGI,NCI-H522 lung,> 10 µM
same,TGI,SN12C renal,> 10 µM
same,TGI,M14 melanoma,> 10 µM
same,TGI,SK-MEL-5 melanoma,> 10 µM
same,TGI,CAKI-1 renal,> 10 µM
same,TGI,COLO 205 colon,> 10 µM
same,TGI,786-0 renal,> 10 µM
same,TGI,OVCAR-8 ovarian,> 10 µM
same,TGI,SK-OV-3 ovarian,> 10 µM
same,TGI,DU-145 prostate,> 10 µM
same,TGI,RPMI-8226 leukemia,> 10 µM
same,TGI,NCI-H23 lung,> 10 µM
same,TGI,MDA-MB-231 breast,> 10 µM
same,TGI,HCT-15 colon,> 10 µM
same,TGI,UO-31 renal,> 10 µM
same,TGI,NCI-H226 lung,> 10 µM
same,TGI,ACHN renal,> 10 µM
same,TGI,SK-MEL-28 melanoma,> 10 µM
same,TGI,NCI/ADR-RES ovarian,> 10 µM
same,TGI,NCI-H460 lung,> 10 µM
same,TGI,MCF7 breast,> 10 µM
same,TGI,SNB-19 CNS,> 10 µM
same,TGI,MALME-3M melanoma,> 10 µM
same,TGI,SF-539 CNS,> 10 µM
same,TGI,UACC-257 melanoma,> 10 µM
same,TGI,MDA-N,> 10 µM
same,TGI,SW-620 colon,> 10 µM
same,TGI,BT-549 breast,> 10 µM
same,TGI,HT29 colon,> 10 µM
same,TGI,SNB-75 CNS,> 10 µM
same,TGI,OVCAR-4 ovarian,> 10 µM
same,TGI,RXF 393 renal,> 10 µM
same,TGI,IGROV1 ovarian,> 10 µM
same,TGI,HCT-116 colon,> 10 µM
same,TGI,HOP-92 NSCLC,> 10 µM
same,TGI,A498 renal,> 10 µM
same,TGI,SF-268 CNS,> 10 µM
same,TGI,CCRF-CEM leukemia,> 10 µM
same,TGI,OVCAR-5 ovarian,> 10 µM
same,TGI,PC-3 prostate,> 10 µM
